Measured values from ChEMBL document CHEMBL1201862, “PubChem BioAssay data set” (2004).
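In this assay, cells in 96-well plates receive the compound at five concentrations for 48 hours. Endpoints are linearly interpolated between the surrounding concentrations. Abbreviation: GI50, concentration required for 50% inhibition of growth.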 Activity calls are given as the source filed them. Cut-off read from the data, not from the text of the source: active = GI50 up to about 1.1 µM and inactive = higher.

Legend:
Experiment in all cases: inhibition of tumour cell growth, NCI panel, 48 h
SNB-19 = system: SNB-19
NCI-H522 = system: NCI-H522
NCI-H23 = system: NCI-H23
M14 = system: M14
TK-10 = system: TK-10
MDA-MB-231 = system: MDA-MB-231
COLO 205 = system: COLO 205
UACC-62 = system: UACC-62
SF-268 = system: SF-268
OVCAR-4 = system: OVCAR-4
OVCAR-8 = system: OVCAR-8
HT-29 = system: HT-29
SK-OV-3 = system: SK-OV-3
U-251 = system: U-251
ACHN = system: ACHN
NCI/ADR-RES = system: NCI/ADR-RES
MDA-MB-435 = system: MDA-MB-435
SK-MEL-5 = system: SK-MEL-5
SK-MEL-2 = system: SK-MEL-2
CAKI-1 = system: CAKI-1
SR = system: SR
786-0 = system: 786-0
KM12 = system: KM12
SN12C = system: SN12C
HOP-62 = system: HOP-62
DU-145 = system: DU-145
SF-539 = system: SF-539
PC-3 = system: PC-3
RPMI-8226 = system: RPMI-8226
NCI-H460 = system: NCI-H460
MDA-N = system: MDA-N
SNB-75 = system: SNB-75
K562 = system: K562
A498 = system: A498
Hs-578T = system: Hs-578T
LOX IMVI = system: LOX IMVI
RXF 393 = system: RXF 393
T47D = system: T47D
NCI-H226 = system: NCI-H226
SK-MEL-28 = system: SK-MEL-28
Malme-3M = system: Malme-3M
UACC-257 = system: UACC-257
A549 = system: A549
HCT-116 = system: HCT-116
UO-31 = system: UO-31
MCF7 = system: MCF7
HOP-92 = system: HOP-92
HCC 2998 = system: HCC 2998
MOLT-4 = system: MOLT-4
SW-620 = system: SW-620
HCT-15 = system: HCT-15
SF-295 = system: SF-295
BT-549 = system: BT-549
EKVX = system: EKVX
OVCAR-3 = system: OVCAR-3
IGROV-1 = system: IGROV-1
OVCAR-5 = system: OVCAR-5
HL-60 = system: HL-60
CCRF-CEM = system: CCRF-CEM

For `O=c1c(=O)c2cscc2c1=O`, the GI50 (SNB-19) was 6.56 µM (inactive), the GI50 (NCI-H522) was 0.486 µM (active) and the GI50 (NCI-H23) was 5.61 µM (inactive). The GI50 (M14) was 4.94 µM (inactive), the GI50 (TK-10) was 4.56 µM (inactive) and the GI50 (MDA-MB-231) was 5.14 µM (inactive). The GI50 (COLO 205) was 4.73 µM (inactive), the GI50 (UACC-62) was 4.73 µM (inactive) and the GI50 (SF-268) was 4.4 µM (inactive). For the same compound, the GI50 (OVCAR-4) was 4.99 µM (inactive), the GI50 (OVCAR-8) was 6.55 µM (inactive) and the GI50 (HT-29) was 4.93 µM (inactive). For the same compound, the GI50 (SK-OV-3) was > 25 µM (inactive), the GI50 (U-251) was 4.75 µM (inactive) and the GI50 (ACHN) was 4.69 µM (inactive). The GI50 (NCI/ADR-RES) was 8 µM (inactive), the GI50 (MDA-MB-435) was 4.65 µM (inactive) and the GI50 (SK-MEL-5) was 4.42 µM (inactive). The GI50 (SK-MEL-2) was 4.92 µM (inactive), the GI50 (CAKI-1) was 4.4 µM (inactive) and the GI50 (SR) was 0.137 µM (active). For the same compound, the GI50 (786-0) was 5.22 µM (inactive), the GI50 (KM12) was 5.15 µM (inactive) and the GI50 (SN12C) was 5.87 µM (inactive). For the same compound, the GI50 (HOP-62) was 5.15 µM (inactive), the GI50 (DU-145) was 5.33 µM (inactive) and the GI50 (SF-539) was 4.95 µM (inactive). For the same compound, the GI50 (PC-3) was 4.58 µM (inactive), the GI50 (RPMI-8226) was 6.47 µM (inactive) and the GI50 (NCI-H460) was 7.76 µM (inactive). For the same compound, the GI50 (MDA-N) was 4.99 µM (inactive), the GI50 (SNB-75) was 4.32 µM (inactive) and the GI50 (K562) was 0.0955 µM (active). The GI50 (A498) was > 25 µM (inactive), the GI50 (Hs-578T) was 9.75 µM (inactive) and the GI50 (LOX IMVI) was 4.92 µM (inactive). For the same compound, the GI50 (RXF 393) was 4.74 µM (inactive), the GI50 (T47D) was 3.66 µM (inactive) and the GI50 (NCI-H226) was 5.55 µM (inactive). For the same compound, the GI50 (SK-MEL-28) was 4.53 µM (inactive), the GI50 (Malme-3M) was 4.39 µM (inactive) and the GI50 (UACC-257) was 4.27 µM (inactive). For the same compound, the GI50 (A549) was 8.99 µM (inactive), the GI50 (HCT-116) was 4.9 µM (inactive) and the GI50 (UO-31) was 4.75 µM (inactive). For the same compound, the GI50 (MCF7) was 6.24 µM (inactive), the GI50 (HOP-92) was 5.47 µM (inactive) and the GI50 (HCC 2998) was 2.92 µM (inactive). The GI50 (MOLT-4) was 4.58 µM (inactive), the GI50 (SW-620) was 0.989 µM (active) and the GI50 (HCT-15) was 5.78 µM. The GI50 (SF-295) was > 25 µM (inactive), the GI50 (BT-549) was 4.85 µM (inactive) and the GI50 (EKVX) was 5.11 µM (inactive). The GI50 (OVCAR-3) was 5.62 µM (inactive), the GI50 (IGROV-1) was 4.66 µM (inactive) and the GI50 (OVCAR-5) was 4.74 µM (inactive).
`COc1ccc(-c2c3ccccc3c(-c3ccc(OCCBr)cc3)c3ccccc23)cc1` was tested, and the GI50 (SNB-19) was > 100 µM (inactive), the GI50 (NCI-H522) was > 100 µM (inactive) and the GI50 (NCI-H23) was > 100 µM (inactive). The GI50 (M14) was > 100 µM (inactive), the GI50 (TK-10) was > 100 µM (inactive) and the GI50 (MDA-MB-231) was > 100 µM (inactive). The GI50 (COLO 205) was > 100 µM (inactive), the GI50 (UACC-62) was > 100 µM (inactive) and the GI50 (SF-268) was > 100 µM (inactive). The GI50 (HL-60) was > 100 µM (inactive), the GI50 (OVCAR-4) was > 100 µM (inactive) and the GI50 (OVCAR-8) was > 100 µM (inactive). For the same compound, the GI50 (HT-29) was > 100 µM (inactive), the GI50 (SK-OV-3) was > 100 µM (inactive) and the GI50 (U-251) was > 100 µM (inactive). For the same compound, the GI50 (ACHN) was > 100 µM (inactive), the GI50 (NCI/ADR-RES) was > 100 µM (inactive) and the GI50 (MDA-MB-435) was > 100 µM (inactive). The GI50 (SK-MEL-5) was > 100 µM (inactive), the GI50 (SK-MEL-2) was > 100 µM (inactive) and the GI50 (CAKI-1) was > 100 µM (inactive). The GI50 (SR) was > 100 µM (inactive), the GI50 (786-0) was > 100 µM (inactive) and the GI50 (KM12) was > 100 µM (inactive). For the same compound, the GI50 (SN12C) was > 100 µM (inactive), the GI50 (HOP-62) was > 100 µM (inactive) and the GI50 (DU-145) was > 100 µM (inactive). For the same compound, the GI50 (SF-539) was > 100 µM (inactive), the GI50 (PC-3) was > 100 µM (inactive) and the GI50 (RPMI-8226) was > 100 µM (inactive). The GI50 (NCI-H460) was > 100 µM (inactive), the GI50 (MDA-N) was > 100 µM (inactive) and the GI50 (SNB-75) was 43.9 µM (inactive). The GI50 (A498) was > 100 µM (inactive), the GI50 (Hs-578T) was > 100 µM (inactive) and the GI50 (LOX IMVI) was > 100 µM (inactive). For the same compound, the GI50 (RXF 393) was > 100 µM (inactive), the GI50 (T47D) was > 100 µM (inactive) and the GI50 (NCI-H226) was > 100 µM (inactive). The GI50 (SK-MEL-28) was > 100 µM (inactive), the GI50 (Malme-3M) was > 100 µM (inactive) and the GI50 (UACC-257) was > 100 µM (inactive). The GI50 (CCRF-CEM) was > 100 µM (inactive), the GI50 (A549) was > 100 µM (inactive) and the GI50 (HCT-116) was > 100 µM (inactive). The GI50 (UO-31) was 0.102 µM (active), the GI50 (MCF7) was > 100 µM (inactive) and the GI50 (HCC 2998) was > 100 µM (inactive). For the same compound, the GI50 (MOLT-4) was > 100 µM (inactive), the GI50 (SW-620) was > 100 µM (inactive) and the GI50 (HCT-15) was > 100 µM. The GI50 (SF-295) was > 100 µM (inactive), the GI50 (BT-549) was > 100 µM (inactive) and the GI50 (EKVX) was > 100 µM (inactive). For the same compound, the GI50 (OVCAR-3) was > 100 µM (inactive), the GI50 (IGROV-1) was > 100 µM (inactive) and the GI50 (OVCAR-5) was > 100 µM (inactive).
In the case of `O=C(CCCCCC(=O)N1CC(CCl)c2ccc([N+](=O)[O-])cc21)N1CC(CCl)c2ccc([N+](=O)[O-])cc21` (stereo not drawn), the GI50 (SNB-19) was > 100 µM (inactive), the GI50 (NCI-H522) was > 100 µM (inactive) and the GI50 (NCI-H23) was > 100 µM (inactive). For the same compound, the GI50 (M14) was > 100 µM (inactive), the GI50 (TK-10) was > 100 µM (inactive) and the GI50 (MDA-MB-231) was > 100 µM (inactive). For the same compound, the GI50 (COLO 205) was > 100 µM (inactive), the GI50 (UACC-62) was > 100 µM (inactive) and the GI50 (SF-268) was > 100 µM (inactive). For the same compound, the GI50 (HL-60) was 75.3 µM (inactive), the GI50 (OVCAR-4) was > 100 µM (inactive) and the GI50 (OVCAR-8) was > 100 µM (inactive). The GI50 (SK-OV-3) was > 100 µM (inactive), the GI50 (U-251) was > 100 µM (inactive) and the GI50 (ACHN) was > 100 µM (inactive). For the same compound, the GI50 (NCI/ADR-RES) was > 100 µM (inactive), the GI50 (MDA-MB-435) was > 100 µM (inactive) and the GI50 (SK-MEL-5) was 52.5 µM (inactive). The GI50 (SK-MEL-2) was > 100 µM (inactive), the GI50 (CAKI-1) was > 100 µM (inactive) and the GI50 (SR) was 9.31 µM (inactive). The GI50 (786-0) was > 100 µM (inactive), the GI50 (KM12) was > 100 µM (inactive) and the GI50 (SN12C) was > 100 µM (inactive). The GI50 (HOP-62) was 95.7 µM (inactive), the GI50 (DU-145) was > 100 µM (inactive) and the GI50 (SF-539) was > 100 µM (inactive). The GI50 (PC-3) was > 100 µM (inactive), the GI50 (NCI-H460) was 34 µM (inactive) and the GI50 (MDA-N) was > 100 µM (inactive). The GI50 (SNB-75) was 48.1 µM (inactive), the GI50 (K562) was > 100 µM (inactive) and the GI50 (A498) was 87.1 µM (inactive). The GI50 (Hs-578T) was > 100 µM (inactive), the GI50 (LOX IMVI) was > 100 µM (inactive) and the GI50 (RXF 393) was > 100 µM (inactive). The GI50 (T47D) was > 100 µM (inactive), the GI50 (NCI-H226) was > 100 µM (inactive) and the GI50 (UACC-257) was > 100 µM (inactive). The GI50 (CCRF-CEM) was 91.4 µM (inactive), the GI50 (HCT-116) was > 100 µM (inactive) and the GI50 (UO-31) was > 100 µM (inactive). The GI50 (MCF7) was 36.9 µM (inactive), the GI50 (HOP-92) was > 100 µM (inactive) and the GI50 (HCC 2998) was 23.7 µM (inactive). For the same compound, the GI50 (MOLT-4) was > 100 µM (inactive), the GI50 (SW-620) was > 100 µM (inactive) and the GI50 (HCT-15) was > 100 µM. For the same compound, the GI50 (SF-295) was 87.1 µM (inactive), the GI50 (BT-549) was > 100 µM (inactive) and the GI50 (EKVX) was > 100 µM (inactive). For the same compound, the GI50 (OVCAR-3) was > 100 µM (inactive), the GI50 (IGROV-1) was > 100 µM (inactive) and the GI50 (OVCAR-5) was > 100 µM (inactive).
